# Results: patent publication US20260015340A1, “COMPOUND INCLUDING 2,4-DIAMINOPYRIDINE, PREPARATION METHOD THEREFOR, AND PHARMACEUTICAL COMPOSITION CONTAINING SAME AS ACTIVE INGREDIENT FOR PREVENTION OR TREATMENT OF CANCER” (KOREA RESEARCH INSTITUTE OF CHEMICAL TECHNOLOGY, priority 2022, published 2026)
# Like-named read-outs stand apart in the source and are kept apart here.
# Experiments:
# [1] = tested on: human ovarian cancer cell line A2780; assay: Anticancer activity, CCK8 cell viability; assay type: cell-based; conditions: 72 h, A2780 cells, three days, FIG. 1
# Procedure: (§1) The anticancer activity of the MLK3 and HPK1 kinase inhibitor compounds was evaluated using the human ovarian cancer cell line A2780 and the cisplatin-resistant cell line A2780/cis. A2780 and A2780/cis cells were cultured at a density of 4000 cells per well in 96-well plates and stabilized for one day. The compounds 1 to 3 synthesized in Example 1 were serially diluted starting from a concentration of 10 μM and applied to the cells. The treated cells were incubated for three days, and cell viability was measured using CCK8 reagent, with the concentration at which 50% of the cancer cells died expressed as the GI50.
# [2] = tested on: cisplatin-resistant cell line A2780/cis; assay: Anticancer activity, CCK8 cell viability; assay type: cell-based; conditions: Homo sapiens, A2780cis, 72 h, A2780/cis cells, three days, FIG. 1
# Procedure: as §1
# MLK3 (h) = MLK3 (h) (Homo sapiens, UniProt Q16584); assay: Inhibition against kinase activity of MLK3 (33P-ATP filter assay); assay type: biochemical
# Sequence of MLK3 (h) (Q16584 whole entry, looked up): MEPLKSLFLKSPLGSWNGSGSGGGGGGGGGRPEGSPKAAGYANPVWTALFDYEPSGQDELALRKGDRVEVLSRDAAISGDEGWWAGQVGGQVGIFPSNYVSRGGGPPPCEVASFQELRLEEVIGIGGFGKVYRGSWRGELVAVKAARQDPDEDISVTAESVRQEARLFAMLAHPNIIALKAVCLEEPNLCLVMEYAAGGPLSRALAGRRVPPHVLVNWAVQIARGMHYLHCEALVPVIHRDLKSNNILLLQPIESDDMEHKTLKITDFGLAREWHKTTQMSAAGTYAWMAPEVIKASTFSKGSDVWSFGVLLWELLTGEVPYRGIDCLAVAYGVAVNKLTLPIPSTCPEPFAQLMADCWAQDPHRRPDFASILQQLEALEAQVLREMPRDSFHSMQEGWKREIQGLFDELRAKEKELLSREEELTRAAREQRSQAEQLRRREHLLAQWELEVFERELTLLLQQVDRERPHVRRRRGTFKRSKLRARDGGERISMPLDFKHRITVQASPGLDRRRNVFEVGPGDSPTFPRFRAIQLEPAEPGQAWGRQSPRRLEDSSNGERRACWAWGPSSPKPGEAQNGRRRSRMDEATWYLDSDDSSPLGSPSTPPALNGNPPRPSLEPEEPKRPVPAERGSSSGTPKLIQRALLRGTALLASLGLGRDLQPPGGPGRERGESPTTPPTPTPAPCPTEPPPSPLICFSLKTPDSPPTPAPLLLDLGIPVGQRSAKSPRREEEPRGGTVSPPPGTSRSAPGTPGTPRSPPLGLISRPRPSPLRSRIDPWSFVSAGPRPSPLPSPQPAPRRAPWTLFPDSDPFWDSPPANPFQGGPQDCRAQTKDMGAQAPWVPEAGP
# Procedure: The kinase inhibition activity against MLK3 was measured as follows. Recombinant human […] protein was mixed with the compounds in a reaction solution (8 mM MOPS, pH 7.0, 0.2 mM EDTA, 0.33 mg/mL myelin basic protein, 5 mM DTT, 10 mM magnesium acetate, and 45 μM [gamma-33P-ATP]). The mixture was incubated at room temperature for 40 minutes. The reaction was terminated by adding phosphoric acid at a final concentration of 0.5%. A 10 μL aliquot of the reaction solution was then spotted onto a P30 filter, which was washed four times in 0.425% phosphoric acid solution for 4 minutes each and then washed once in methanol. The filters were dried, and MLK3 activity was measured via scintillation counting. The MLK3 activity observed in the control group free of the compounds was set as 100%, and the inhibition by the compounds was expressed relative to this control value. To calculate the IC50 value, the compounds were diluted in 9 concentrations, starting from a maximum of 1 μM in a threefold serial dilution. The IC50 was defined as the concentration at which 50% inhibition was observed.
# Human PBMC = assay: IL-2 measurement for T cell activation enhancement; assay type: cell-based; conditions: CD3/CD28 Dynabeads, 6 days, FIG. 2
# Procedure: Human PBMC was seeded at a density of 2×10^5 cells per well in a 96-well plate. The cells were pretreated for one hour with serial dilutions of the compounds 1 to 3 synthesized in Example 1 starting from 3 μM. Afterward, CD3/CD28 Dynabeads were added to the cells at a 1:1 ratio and incubated for 6 days. After incubation, the cells and media were analyzed using the Sartorius human T cell activation cell and cytokine profiling kit with the iQue system. IL-2, a biomarker used to assess T cell activation, was measured. The results were calculated by setting the positive control group (treated with Dynabeads alone) as 100%.
# [3] = tested on: doxorubicin-resistant blood cancer K562/ADM; assay: Anticancer activity in other cancer cell lines; assay type: cell-based; conditions: Homo sapiens
# Procedure: as §1
# (§2) Additionally, the anticancer activity of the compounds was also observed in other cancer cell lines (blood cancer, breast cancer, ovarian cancer, lung cancer, and brain cancer), as well as in drug-resistant cancer cell lines (doxorubicin-resistant blood cancer K562/ADM; and paclitaxel-resistant breast cancer MDA-MB-231/PTX).
# [4] = tested on: paclitaxel-resistant breast cancer MDA-MB-231/PTX; assay: Anticancer activity in other cancer cell lines; assay type: cell-based; conditions: Homo sapiens
# Procedure: as §1, §2
# SH-SY5Y = assay: Anticancer activity in other cancer cell lines; assay type: cell-based; conditions: Homo sapiens
# Procedure: as §1, §2
# SKOV3 = assay: Anticancer activity in other cancer cell lines; assay type: cell-based; conditions: Homo sapiens, SK-OV-3
# Procedure: as §1, §2
# U937 = assay: Anticancer activity in other cancer cell lines; assay type: cell-based; conditions: Homo sapiens, U-937
# Procedure: as §1, §2
# MDA-MB-231 = assay: Anticancer activity in other cancer cell lines; assay type: cell-based; conditions: Homo sapiens
# Procedure: as §1, §2
# K562 = assay: Anticancer activity in other cancer cell lines; assay type: cell-based; conditions: Homo sapiens
# Procedure: as §1, §2
# MDA-MB-453 = assay: Anticancer activity in other cancer cell lines; assay type: cell-based; conditions: Homo sapiens
# Procedure: as §1, §2
# A549 = assay: Anticancer activity in other cancer cell lines; assay type: cell-based; conditions: Homo sapiens
# Procedure: as §1, §2
# HPK1 (h) = HPK1 (h) (Homo sapiens (Human), UniProt Q92918); assay: Inhibition against kinase activity of HPK1 (33P-ATP filter assay); assay type: biochemical
# Sequence of HPK1 (h) (Q92918 whole entry): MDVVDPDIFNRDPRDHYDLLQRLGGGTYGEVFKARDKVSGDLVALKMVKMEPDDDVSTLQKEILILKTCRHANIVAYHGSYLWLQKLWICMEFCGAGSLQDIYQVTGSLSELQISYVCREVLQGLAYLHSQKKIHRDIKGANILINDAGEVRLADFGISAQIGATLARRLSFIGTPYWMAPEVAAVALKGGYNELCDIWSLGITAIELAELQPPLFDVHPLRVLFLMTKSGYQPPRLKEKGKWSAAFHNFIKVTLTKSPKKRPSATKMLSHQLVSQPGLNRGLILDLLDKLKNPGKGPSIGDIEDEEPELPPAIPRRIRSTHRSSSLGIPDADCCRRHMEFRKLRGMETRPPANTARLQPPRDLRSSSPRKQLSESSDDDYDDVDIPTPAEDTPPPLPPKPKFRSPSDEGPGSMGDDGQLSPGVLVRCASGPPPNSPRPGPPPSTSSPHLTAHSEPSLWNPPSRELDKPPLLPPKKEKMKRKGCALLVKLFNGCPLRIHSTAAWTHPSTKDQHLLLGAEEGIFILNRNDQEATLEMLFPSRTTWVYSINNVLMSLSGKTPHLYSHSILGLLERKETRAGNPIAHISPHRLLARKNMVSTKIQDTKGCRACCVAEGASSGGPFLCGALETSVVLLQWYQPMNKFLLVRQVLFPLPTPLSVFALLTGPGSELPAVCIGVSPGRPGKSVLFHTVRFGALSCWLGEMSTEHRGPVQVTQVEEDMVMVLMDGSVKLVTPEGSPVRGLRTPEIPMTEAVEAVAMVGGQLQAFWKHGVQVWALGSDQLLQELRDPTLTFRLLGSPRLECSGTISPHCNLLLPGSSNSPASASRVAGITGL
# Procedure: Inhibition against kinase activity of HPK1 was measured as follows. Recombinant human HPK1 protein was mixed with the compounds in a reaction solution (8 mM MOPS, pH 7.0, 0.2 mM EDTA, 0.33 mg/mL myelin basic protein, 10 mM magnesium acetate, and 15 μM [gamma-33P-ATP]). The mixture was incubated at room temperature for 40 minutes. The reaction was terminated by adding phosphoric acid at a final concentration of 0.5%. A 10 μL aliquot of the reaction solution was spotted onto a P30 filter, washed four times in 0.425% phosphoric acid solution for 4 minutes each, and washed once with methanol. The filters were dried, and HPK1 activity was measured via scintillation counting. The HPK1 activity observed in the control group free of the compounds was set as 100%, and the inhibition by the compounds was expressed relative to this control value. To calculate the IC50 value, the compounds were diluted in 9 concentrations, starting from a maximum of 1 μM in a threefold serial dilution. The IC50 was defined as the concentration at which 50% inhibition was observed.
# [5] = MLK3 (h), 45 μM ATP, read-out: IC50
# [6] = approximate value, read-out: IC50 value for MLK3 inhibition
# [7] = HPK1 (h), 15 μM ATP, read-out: IC50
# [8] = approximate value, read-out: IC50 value for HPK1 inhibition
Compound,GI50 [1] [nM],GI50 [2] [nM],IC50 (MLK3 (h); [5]) [nM],IC50 (MLK3 (h); [6]) [nM],IL-2 levels (T cell activation) (Human PBMC),GI50 [3] [nM],GI50 [4] [nM],GI50 (SH-SY5Y) [nM],GI50 (SKOV3) [nM],GI50 (U937) [nM],GI50 (MDA-MB-231) [nM],GI50 (K562) [nM],GI50 (MDA-MB-453) [nM],GI50 (A549) [nM],IC50 (HPK1 (h); [7]) [nM],IC50 (HPK1 (h); [8]) [nM]
"CC1(C)OC(=O)c2ccc(Nc3nc(Nc4ccc5c(c4)CCNC5)ncc3Cl)cc21 [Compound 1, 5-((5-chloro-2-((1,2,3,4-tetrahydroisoquinolin-6-yl)amino)pyrimidin-4-yl)amino)-3,3-dimethylisobenzofuran-1(3H)-one]",~200,~400,100 to 500,~140,increased IL-2 levels,3740,990,390,1700,290,1250,430,1020,1610,1 to 100,~30
"CC1(C)OC(=O)c2cc(Nc3nc(Nc4ccc5c(c4)CCNC5)ncc3Cl)ccc21 [Compound 2, 6-((5-chloro-2-((1,2,3,4-tetrahydroisoquinolin-6-yl)amino)pyrimidin-4-yl)amino)-3,3-dimethylisobenzofuran-1(3H)-one]",~210,~310,100 to 500,~200,increased IL-2 levels,2280,770,280,1500,440,1030,1070,2900,1150,1 to 100,~50
"CC1(C)OC(=O)c2ccc(Nc3ncc(Cl)c(Nc4ccc5c(c4)C(C)(C)OC5=O)n3)cc21 [Compound 3, 5,5′-((5-Chloropyrimidine-2,4-diyl)bis(azanediyl))bis(3,3-dimethylisobenzofuran-1(3H)-one)]",–,–,> 1000,–,–,> 10000,1110,550,> 10000,> 10000,1350,> 10000,1070,> 10000,500 to 1000,~900
